Assay [1] concerns Pan02 murine pancreatic adenocarcinoma. The experiment in a line: Efficacy study in the syngenic orthotopic Pan02 tumor model (Example 15). It counts as in vivo, female C57BL/6 mice. The following applies: oral, 21 days. An excerpt:
The purpose of this study was to obtain information about the efficacy of the oral combination of Chamomile extract (MR31E25C1 and Retinoic acid (RetAcid) in a syngenic orthotropic PAN02 tumor murine model.
Young (approximately 7 weeks) female C57BL/6 mice were purchased from the National Cancer Institute (Frederick, Md.) and maintained in Aurigon Life Science GmbH's animal care facility with ad libitum access to water and mouse chow (Ssniff® R/M-H). The animals were divided into groups of 10 animals.
All animals, except those in the non-inoculated control group, were given an intrapancreatic injection of 2.5×10^5 Pan02 tumor cells each. Pan02 is a murine pancreatic adenocarcinoma cell line syngeneic to the C57BL/6 species. First treatment was given orally 15 days after the inoculation for a total period of 21 days.
Necropsy was performed at the end of the in-life phase or immediately on animals found dead or killed in extremis. The weights of the brain, whole pancreas, pancreatic tumor, spleen, and liver were determined and the number/size of metastases on the surface of the spleen and liver, peritoneal, kidney, ovary, diaphragm metastases, and metastases of the lymph nodes (if applicable) were recorded. Additionally, the size of the pancreatic tumors of the animals was measured.
The groups were as follows:
Group 1: Non-inoculated, untreated control group. […]

Assay [2] has as its system H460 human large cell lung cancer cell line. The experiment in a line: Cellular growth of H460 cells, AMT without chamomile, with MR15E14 or with CHARE (Example 12). The format is cell-based. Conditions: extracts 21 μg/ml, 1% AMT, retinoic acid 1 μg/ml or 1% ethanol, 6 days, FIG. 3A/3B. On the procedure:
The following experiments were performed to compare the composition of the present invention with the teaching of WO 03101479 A1: The human large cell lung cancer cell line, H460, was obtained from the American Type Culture Collection. The cells were cultivated in RPMI-1640 medium containing 10% FBS and kept in a humidified incubator at 37° C. and 5% CO2. Cultures used in subsequent experiments were passaged less than 25 times. The H460 cells were seeded at 14375 cells/well (cell concentration of 10,000 cells/ml) in 12 well plates and were left to adhere overnight.
The H460 cells were incubated with the samples and sample pairs for a total of 6 days with one dose and media refreshment. After 6 days, all cells were harvested to be analyzed. The cell number was determined using flow cytometry. Live cells were differentiated from dead cells by adding Propidium iodide (PI). In short, cells were trypsinized, centrifuged and resuspended in 500 μl of media. 2 μl of PI (1 mg/ml) was added to 400 μl of cell suspension. Since the cells number present in 10 μl of the cell suspension was measured, multiple measurements for each well were taken. […] Solvent control was set at 100%.

Assay [3] shares this test system. The experiment in a line: Cellular growth of H460 cells, flow cytometry cell count with PI (Example 11). The format is cell-based. The following applies: retinoic acid 1 μg/ml, extracts 21 μg/ml, 6 days, 2% ethanol, FIG. 2. On the procedure:
The human large cell lung cancer cell line, H460, was obtained from the American Type Culture Collection. The cells were cultivated in RPMI-1640 medium containing 10% FBS and kept in a humidified incubator at 37° C. and 5% CO2. Cultures used in subsequent experiments were passaged less than 25 times. The H460 cells were seeded at 14375 cells/well (cell concentration of 10,000 cells/ml) in 12 well plates and were left to adhere overnight.
MR15E14, CHARE and Retinoic acid prepared as described in examples 2, 4 and 9 respectively including a solvent control (2% ethanol) were added to the cells. Media were replaced once after 3 days of incubation with fresh media and samples. After 6 days, all cells were harvested to be analyzed. The cell number was determined using flow cytometry. Live cells were differentiated from dead cells by adding Propidium iodide (PI). Live cells would be PI negative since the dye would be excluded from viable cells.
In short, cells were trypsinized, centrifuged and resuspended in 500 μl of media. 2 μl of PI (1 mg/ml) was added to 400 μl of cell suspension. Since the cells number present in 10 μl of the cell suspension was measured, multiple measurements for each well were taken.
Solvent control was set at 100%.
(In general: Flow cytometry measures light scatter and fluorescence of single cells or particles in a stream.)

The subject of assay [4] is A172 human glioblastoma cell line. The experiment in a line: Cellular growth of A172 cells, live cell count with Trypan Blue (Example 10). The format is cell-based. The following applies: retinyl acetate 1 μg/ml, 6 days, FIG. 1A. On the procedure:
The human glioblastoma cell lines A172 and U87 MG were cultivated in culture medium containing 10% FBS and kept in a humidified incubator at 37° C. and 5% CO2. Cultures used in subsequent experiments were passaged less than 25 times. The cells were seeded at 100,000 cells in T25 cm2 culture flasks (cell concentration of 10,000 cells/ml). MR15E7 and Retinyl Acetate prepared according to examples 1 and 8 respectively were added alone as individual or together in combination (A172 FIGS. 1A and U87 FIG. 1B). The solvent control was 2% ethanol. Media were replaced once after 3 days of incubation with fresh media and samples. After 6 days, all cells were harvested to be analyzed. The cell number was determined using a cell counter (Countess® automated cell counter, Invitrogen). Live cells were differentiated from dead cells by adding Trypan Blue. Live cells would be Trypan Blue negative since the dye would be excluded from viable cells. […] Solvent control was set at 100%. […] The solvent control and the final ethanol concentration for every well was 2%.

Assay [5] has as its system U87 MG human glioblastoma cell line. The assay is described as follows: Cellular growth of U87 MG cells, live cell count with Trypan Blue (Example 10). It counts as cell-based. Conditions: MR15E7 30 μg/ml, retinyl acetate 1 μg/ml, 6 days, FIG. 1B. On the procedure: The human glioblastoma cell lines A172 and U87 MG were cultivated in culture medium containing 10% FBS and kept in a humidified incubator at 37° C. and 5% CO2. Cultures used in subsequent experiments were passaged less than 25 times. The cells were seeded at 100,000 cells in T25 cm2 culture flasks (cell concentration of 10,000 cells/ml). MR15E7 and Retinyl Acetate prepared according to examples 1 and 8 respectively were added alone as individual or together in combination (A172 FIGS. 1A and U87 FIG. 1B). The solvent control was 2% ethanol.
Media were replaced once after 3 days of incubation with fresh media and samples. After 6 days, all cells were harvested to be analyzed. The cell number was determined using a cell counter (Countess® automated cell counter, Invitrogen).
Live cells were differentiated from dead cells by adding Trypan Blue. Live cells would be Trypan Blue negative since the dye would be excluded from viable cells.
Solvent control was set at 100%. […] The potential growth inhibitory effects of retinyl acetate (1 μg/ml), MR15E7 (30 μg/ml) and the combination of 30 μg/ml of the extract and retinyl acetate (1 μg/ml) were observed on both the A172 (A) and U87 MG (B) cell lines. The solvent control and the final ethanol concentration for every well was 2%.

Entries after “also recorded” stand apart in the source; their conditions may differ.

In the case of `CC1=C(/C=C/C(C)=C/C=C/C(C)=C/C(=O)O)C(C)(C)CCC1` [Retinoic acid, all-trans-Retinoic acid], the “median tumor volume” value in assay [1] (MR31E25C1 484.5 mg/kg 3x daily, retinoic acid 25 mg/kg 2x daily for 2 days, then 10 mg/kg daily, FIG. 5) was “even aggravated the situation”. Besides, the “cumulative metastases area in various organs” value in assay [1] (same doses, vs untreated PAN02 inoculated group, FIG. 6) is “only slight reduction of the overall metastasis development”. Besides, the “effect on cellular growth” value in assay [2] is given as “slight growth retarding effect”; in assay [3] it was “slightly reduced the cellular growth”.
For `CC(=O)OC/C=C(C)/C=C/C=C(C)/C=C/C1=C(C)CCCC1(C)C` [retinyl acetate, Retinyl Acetate], the “effect on cellular growth” value in assay [4] and in assay [5] was “did not affect cellular growth; also recorded: do not affect cellular growth” throughout.

Source of the values: patent publication US10028989B2, “Composition comprising Retinol, a precursor or a reaction product of it and a plant extract from at least one Chamomilla plant for the treatment of cancer” (ALPINIA LAUDANUM INSTITUTE OF PHYTOPHARMACEUTICAL SCIENCES …, priority 2010, dated 2018).
